Test system: surgical injury (linear full-thickness incisions)
Test: Injury strength of full-thickness surgical incisions, vacuum failure pressure (BTC-2000)
Format: in vivo, male hairless guinea pigs
Text: In a recent proof-of-concept study, male hairless guinea pigs (n=30) receive bilateral incisions as previously described by Storch, Perry, Davidson, and Ward (Surg Infect (Larchmt) 2002; 3 Suppl 1:S89-98) This reference is herein incorporated by reference. Two linear full-thickness incisions exactly 2 cm long and separated by approximately 3 cm were made on the left and right dorsolateral regions of all animals. Incisions extend through the dermis and subcutaneous tissue and panniculus carnosus muscle. After the injuries were created, 200 μL of a […] aqueous suspension (1 mg of drug, ˜2.7 mg/kg) of generic stanozolol was applied directly into the injury bed in the right flank but not left flank of n=16 animals. The injury bed on the left side of these animals received 200 μL of saline vehicle control. In the remaining fourteen animals, incisions were not treated (nothing applied control). Only the incision in the right flank was assessed for injury strength in the nothing applied control animals. All injuries were then closed with interrupted nylon sutures. On days 2, 4, and 6 (in remaining animals), animals in the stanozolol group received 100 μL (0.5 mg, ˜1.4 mg/kg) of the same stanozolol suspension in the right injury and 100 μL of saline in the left injury, carefully injected with an insulin syringe introduced lateral to the injury and directed towards the injury bed. For each time point (days 5 and 7), injury strength was tested in 7 nothing applied control guinea pigs and 8 stanozolol guinea pigs after carefully removing dressing and sutures. Injury strength was measured by applying a vacuum to the injury and recording the pressure at which the injury fails. Biomechanical testing was performed under anesthesia using the […] (SRI Technologies, Nashville). A disposable acrylic test ring was placed around the injury and secured to the skin using acrylate glue. The BTC-2000™ test chamber (2.5 cm ID) was mated to the test ring. An escalating negative pressure was applied to the injury at a rate of 10 mm Hg/second, producing a multi-axial stress on the injury. […]

C[C@]12Cc3c[nH]nc3C[C@@H]1CC[C@@H]1[C@@H]2CC[C@@]2(C)[C@H]1CC[C@]2(C)O [stanozolol]
Effect on contralateral (saline treated, left flank) injuries in stanozolol treated animals (local stanozolol in right injury only, days 5 and 7): No effect
Injury strength when exposed to pressure, compared to injuries with control or placebo (FIG. 1) (locally injected bolus dose of 1 mg initially, then 0.5 mg on days 2, 4, 6, tested on days 5 and seven): highest injury strength
Injury strength (pressure at which the injury fails) compared to nothing applied control injuries (stanozolol aqueous suspension applied locally into right flank injury, 1 mg initially then 0.5 mg on days 2, 4, 6, tested on days 5 and 7): significantly stronger

Source: patent US9592243B2, “Medical devices and methods comprising an anabolic agent for treatment of an injury” (Warsaw Orthopedic, Inc., priority 2011, dated 2017)
